Values joined by “and” are separate entries in the source; they are usually repeats but may differ in a detail not shown here. Identical values can stand only once.
Legend:
FLT-3 = conditions: cited from earlier work
RET and its mutant forms = conditions: compared with reported RET inhibitors; cited from earlier work
solubility in DMF = type: physicochemical
Experimental: The reaction set-up used a T-mixer at 20° C. prior to injecting the solution of 4 into the heated glass reactor chip that was held at 80 or 95° C. […] Based on these findings, we sought to modify our strategy for execution of this reaction in flow.

SMILES | potency toward inhibition of all FLT-3 forms (FLT-3) | inhibition activity of RET and its mutant forms (RET and its mutant forms) | solubility (solubility in DMF; 20° C. in DMF) | solubility (solubility in DMF; 20° C. in DMF, after recrystallizing twice (EtOH, then EtOAc)) | solubility (solubility in DMF; 55° C. in DMF)
CN1CCN(Cc2ccc(NC(=O)c3cncc(C#Cc4cnc(N)c5ncccc45)c3)cc2C(F)(F)F)CC1 [HSN608, 5-((8-Amino-1,7-naphthyridin-5-yl)ethynyl)-N-(4-((4-methylpiperazin-1-yl)methyl)-3-(trifluoromethyl)phenyl)nicotinamide] | high potency | better than the reported RET inhibitors |  |  | 
Nc1ncc(Br)c2cccnc12 [compound 4, 5-bromo-8-amino-1,7-naphthyridine] |  |  | 14.6 mg/ml and 0.065 M | 0.0785 M and 17.6 mg/ml | 38.1 mg/ml and 0.170 M
